Laboratory results: patent US20200276100A1, “PHOTOPROTECTIVE COMPOSITIONS CONTAINING MALASSEZIA-DERIVED COMPOUNDS AND/OR CHEMICAL ANALOGS THEREOF” (priority 2018, published 2020)
Read-outs that look alike come from different tables or passages of the source.

Assays:
[1] = system: COL1A1 (Collagen, type 1, alpha 1); test: Differential gene fold expression analysis of skin biopsies; type: in vivo, human; details: RNA, biopsy of treated vs untreated skin after 6 weeks of application; participant; parentheses = not statistically significant; negative = decrease
Description: (§1) Differential gene fold expression analysis was used to analyze Malassezin and compound AB17151. Biopsies from human subjects were taken after 6 weeks of application of compounds. Two participants applied AB17151 and one participant applied Malassezin. Biopsies were taken of treated skin and, as a control and for comparison, from untreated skin.
(§2) In the Table, numbers in parentheses indicate changes that are not statistically significant. All numbers indicate fold change in expression. Negative values indicate decreases in activity. A minus-3-fold change in activity, for example, means that the value changed by minus-3-fold, meaning it changed to ⅓ of its original value.

[2] = system: COL1A2 (Collagen, type 1, alpha 2); test: as above; type: in vivo, human; details: RNA, biopsy of treated vs untreated skin after 6 weeks of application, parentheses = not statistically significant, negative = decrease
Description: as §1, §2

[3] = system: COL3A1 (Collagen, type III, alpha 1); test: as above; type: in vivo, human; details: RNA, biopsy of treated vs untreated skin after 6 weeks of application, parentheses = not statistically significant, negative = decrease
Description: as §1, §2

[4] = system: COL5A1 (Collagen, type V, alpha 1); test: as above; type: in vivo, human; details: RNA, biopsy of treated vs untreated skin after 6 weeks of application; participant; parentheses = not statistically significant; negative = decrease
Description: as §1, §2

[5] = system: COL5A2 (Collagen, type V, alpha 2); test: as above; type: in vivo, human; details: RNA, biopsy of treated vs untreated skin after 6 weeks of application; participant; parentheses = not statistically significant; negative = decrease
Description: as §1, §2

[6] = system: MMP7 (Matrix Metalloproteinase 7); test: as above; type: in vivo, human; details: RNA, biopsy of treated vs untreated skin after 6 weeks of application; participant one; parentheses = not statistically significant; negative = decrease
Description: as §1, §2

[7] = system: PCOLCE2 (Pro-Collagen C endopeptidase enhancer 2); test: as above; type: in vivo, human; details: RNA, biopsy of treated vs untreated skin after 6 weeks of application, parentheses = not statistically significant, negative = decrease
Description: as §1, §2

subject's skin = test: In vivo photoprotection, clinical erythema evaluation after UVB irradiation; design: species or system human; details: Malassezin 1% formulation, one Skin Type IV subject
Description: The Malassezin 1% formulation used in this study contained the following ingredients: Water (aqua)—65.939%; Dimethyl isosorbide—20.000%; Olive Oil Glycereth-8 Esters—3.000%; Glycerin—2.991%; Coconut Alkanes—2.700%; Hydroxyethyl Acrylate/Sodium Acryloyldimethyl Taurate Copolymer—1.700%; Malassezin—1.000%; Pentylene Glycol—1.000%; Phenoxyethanol—0.640%; Coco-Caprylate/Caprate—0.300%; Caprylyl Glycol—0.200%; Chlorphenesin—0.160%; Sorbitan Isostearate—0.140%; Tocopherol—0.100%; Polysorbate 60-0.080%; and Disodium EDTA—0.050%.
A Skin Type IV […] was included in this Proof of Concept study.
A template of 6 squares was placed on the lower left back (1.5 cm×1.5 cm) of the test subject.
Twenty-four hours after irradiation, the subject returned for MED assessment.
A second right lower square was treated twice daily from day 4 to day 7, and a third medial square for one application on day 7. The product vehicle was applied for 7 days twice daily on the left back. The subject returned to the research center for irradiation on day 7. Each test site was irradiated with 120 mJ of UVB exposure. The subject returned in 24 hours for assessment of phototoxicity/photoprotection.
The subject continued the experiment, receiving Malassezin 1% for a total of 14 days. […]

fine lines and wrinkles = test: Fine lines and wrinkles, dermatologist evaluation (Lemperle classification); type: in vivo, human; details: 11 subjects, 0.1%, 0.5% and 1.0% formulations pooled
Protocol: Malassezin formulations were evaluated for their effect on fine lines and wrinkles. In this study, human subjects with skin containing areas of hyperpigmentation were randomized to one of 3 groups. […] One mL of product (formulations detailed below) was applied to the face of subjects twice daily. Five minutes after the morning application, an SPF 50 sunscreen was applied to protect the treated areas from sun. Each subject had assessments at Baseline, 2, 4, 8, 14, 18 and 22 weeks. Treatment was ceased at 14 weeks. Week 18 and week 22 observations were to determine any return towards baseline.
Eleven subjects using the test ingredient completed week 14. […] An M.D. dermatologist with experience in evaluating fine lines and wrinkles performed evaluations on the subjects in this study and obtained the measurements tabulated below. Wrinkle assessment, classification, and evaluation were performed as described in G. Lemperle et al., A classification of facial wrinkles, Plast. Reconstr. Surg. 108: 1735 (2001), incorporated by reference herein in its entirety. For each subject, the percentage Malassezin formulation is indicated.

[8] = system: lines and wrinkles, skin texture, tone and firmness; test: Subject self-assessment questionnaire; type: in vivo, human; details: percentage of 11 subjects with a score of 6 or 5, formulations pooled
Protocol: Malassezin formulations were evaluated for their effect on fine lines and wrinkles. In this study, human subjects with skin containing areas of hyperpigmentation were randomized to one of 3 groups. Product use groups included Malassezin 0.05%, 0.1%, and 1.0%. One mL of product (formulations detailed below) was applied to the face of subjects twice daily. Five minutes after the morning application, an SPF 50 sunscreen was applied to protect the treated areas from sun. Each subject had assessments at Baseline, 2, 4, 8, 14, 18 and 22 weeks. Treatment was ceased at 14 weeks. Week 18 and week 22 observations were to determine any return towards baseline.
A subject self-assessment was completed at every visit. A total number of eleven (11) subjects were asked to respond to the questions regarding the improvement (if any) in their lines and wrinkles and related skin texture, tone, and firmness. Each answer was ranked from 6 to 1, with each having the meaning: 6—Strongly agree, 5—Agree, 4—Agree somewhat, 3—Disagree somewhat, 2—Disagree, and 1—Strongly disagree. The percentage of subjects answering with a score of 6 or 5 was calculated and is presented in the data below.

Adverse events recording = type: in vivo, human; details: all visits; Malassezin 0.1%, 0.5%, 1.0% formulations twice daily to the face
Protocol: Evaluation: Colorimetry measurements using the Mexameter MX 18 were used at Baseline, and Weeks 2, 4, 8, 14, 18, and 22. Clinical assessments of depigmentation was performed in the treated area. Assessments were performed at Baseline, and Weeks 2, 4, 8, 14, 18, and 22. Brightening assessments included brightening of normal skin and/or severity of dyschromia, if present (see scale). Global improvement was measured at the same time intervals. At all visits any adverse events (AE) was to be recorded including itching, burning, erythema, edema, dryness, scaling or skin peeling (see rating scales). […] Positive percentages indicate increased pigmentation, which indicates darkening. “Conc.” indicates the concentration of Malassezin in the formulation administered to the subject.

[9] = cited from earlier work; for sun protection factor (SPF): 290-400 nm
skin of healthy subjects = details: cited from earlier work

COC(=O)c1c(C(c2c[nH]c3ccccc23)C2CC2)[nH]c2ccccc12 (centres unmarked) [AB17151]
COL1A1 fold change in expression [1]: 5.61 fold change
COL1A2 fold change in expression ([2]; participant one): 1.99 fold change
COL1A2 fold change in expression ([2]; participant): 6.97 fold change
COL3A1 fold change in expression ([3]; participant one): 2.59 fold change
COL3A1 fold change in expression ([3]; participant): 6.26 fold change
COL5A1 fold change in expression [4]: 6.1 fold change
COL5A2 fold change in expression [5]: 2.23 fold change
MMP7 fold change in expression [6]: 1.79 fold change
PCOLCE2 fold change in expression ([7]; participant one): 1.57 fold change
PCOLCE2 fold change in expression ([7]; participant): 1.5 fold change

O=Cc1c(Cc2c[nH]c3ccccc23)[nH]c2ccccc12 [Malassezin]
UV-protective properties, conclusion of the Proof of Concept study (subject's skin): UV-protective properties
COL3A1 fold change in expression ([3]; participant two): 1.7 fold change
Fine lines/wrinkles score, Average (fine lines and wrinkles; Week 0 (baseline)): 2.55
Fine lines/wrinkles score, Average (fine lines and wrinkles; Week 2, P-value 0.024 (Student's T test)): 1.82
Fine lines/wrinkles score, Average (fine lines and wrinkles; Week 4, P-value 0.011 (Student's T test)): 1.73
Fine lines/wrinkles score, Average (fine lines and wrinkles; Week 8, P-value 0.011 (Student's T test)): 1.73
Fine lines/wrinkles score, Average (fine lines and wrinkles; Week 14, P-value 0.011 (Student's T test)): 1.73
Self-assessment: I have smoother skin texture ([8]; Week 2): 45.45%
Self-assessment: My Lines and wrinkles are less visible ([8]; Week 2): 36.36%
Self-assessment: My skin firmness has improved ([8]; Week 2): 36.36%
Self-assessment: My skin has a brighter tone ([8]; Week 2): 45.45%
Self-assessment: My skin looks more youthful and healthy ([8]; Week 2): 45.45%
Self-assessment: My skin texture is less coarse ([8]; Week 2): 54.55%
Self-assessment: Overall skin texture is improved ([8]; Week 2): 54.55%
Self-assessment: Overall skin tone is improved ([8]; Week 2): 54.55%
Self-assessment: I have smoother skin texture ([8]; Week 4): 63.64%
Self-assessment: My Lines and wrinkles are less visible ([8]; Week 4): 54.55%
Self-assessment: My skin firmness has improved ([8]; Week 4): 63.64%
Self-assessment: My skin has a brighter tone ([8]; Week 4): 63.64%
Self-assessment: My skin looks more youthful and healthy ([8]; Week 4): 63.64%
Self-assessment: My skin texture is less coarse ([8]; Week 4): 63.64%
Self-assessment: Overall skin texture is improved ([8]; Week 4): 63.64%
Self-assessment: Overall skin tone is improved ([8]; Week 4): 63.64%
Self-assessment: I have smoother skin texture ([8]; Week 8): 81.82%
Self-assessment: My Lines and wrinkles are less visible ([8]; Week 8): 63.64%
Self-assessment: My skin firmness has improved ([8]; Week 8): 63.64%
Self-assessment: My skin has a brighter tone ([8]; Week 8): 72.73%
Self-assessment: My skin looks more youthful and healthy ([8]; Week 8): 81.82%
Self-assessment: My skin texture is less coarse ([8]; Week 8): 72.73%
Self-assessment: Overall skin texture is improved ([8]; Week 8): 81.82%
Self-assessment: Overall skin tone is improved ([8]; Week 8): 72.73%
Self-assessment: I have smoother skin texture ([8]; Week 14): 90.91%
Self-assessment: My Lines and wrinkles are less visible ([8]; Week 14): 90.91%
Self-assessment: My skin firmness has improved ([8]; Week 14): 72.73%
Self-assessment: My skin has a brighter tone ([8]; Week 14): 81.82%
Self-assessment: My skin looks more youthful and healthy ([8]; Week 14): 72.73%
Self-assessment: My skin texture is less coarse ([8]; Week 14): 100.00%
Self-assessment: Overall skin texture is improved ([8]; Week 14): 90.91%
Self-assessment: Overall skin tone is improved ([8]; Week 14): 81.82%
adverse events (itching, burning, erythema, edema, dryness, scaling or skin peeling) (Adverse events recording): No AEs were recorded

O=C(c1c[nH]c2ccccc12)c1nccc2c1[nH]c1ccccc12 [pityriacitrin, Pityriacitrin]
sun protection factor (SPF) ([9]; pityriacitrin concentration 1.25% in cream): 1.4
sun protection factor (SPF) ([9]; pityriacitrin concentration 2.5% in cream): 1.5
sun protection factor (SPF) ([9]; pityriacitrin concentration 5% in cream): 1.7
UVB and UVA transmission ([9]; pityriacitrin cream formulations): decreased with increasing pityriacitrin concentrations
UV protective effect, overall (skin of healthy subjects; in vitro and in vivo test methods): very weak
in vivo confirmation of the SPF determined in vitro (skin of healthy subjects; pityriacitrin 5% cream): confirmed the validity of the SPF
